Experiments:
[1] = test system: patients with fasting triglyceride levels ≥500 mg/dL; test: 12-week placebo-controlled double-blind clinical study: fasting lipid parameters; assay type: in vivo, human
Experimental: A multi-center, placebo-controlled randomized, double-blind, 12-week study with an open-label extension was performed to evaluate the efficacy and safety of AMR101 in patients with fasting triglyceride levels ≥500 mg/dL. The primary objective of the study was to determine the efficacy of AMR101 2 g daily and 4 g daily, compared to placebo, in lowering fasting TG levels in patients with fasting TG levels ≥500 mg/dL and ≤1500 mg/dL (≥5.65 mmol/L and ≤16.94 mmol/L). The population for this study was men and women (women of childbearing potential needed to be on contraception or practice abstinence) >18 years of age with a body mass index ≤45 kg/m^2 who were not on lipid-altering therapy or are currently on lipid-altering therapy. Patients currently on statin therapy (with or without ezetimibe) were evaluated by the investigator as to whether this therapy could be safely discontinued at screening, or if it should be continued. If statin therapy (with or without ezetimibe) was to be continued, dose(s) must be stable for ≥4 weeks prior to randomization. Patients taking non-statin, lipid-altering medications (niacin >200 mg/day, fibrates, fish oil, other products containing omega-3 fatty acids, or other herbal products or dietary supplements with potential lipid-altering effects), either alone or in combination with statin therapy (with or without ezetimibe), must have been able to safely discontinue non-statin, lipid-altering therapy at screening. Approximately 240 patients were sought to be randomized at approximately 50 centers in North America, South America, Central America, Europe, India, and South Africa. The study was be a 58- to 60-week, Phase 3, multi-center study consisting of 3 study periods: (1) A 6- to 8-week screening period that included a diet and lifestyle stabilization and washout period and a TG qualifying period; (2) A 12-week, double-blind, randomized, placebo-controlled treatment period; and (3) A 40-week, open-label, extension period. After confirmation of qualifying fasting TG values, eligible patients entered a 12-week, randomized, double-blind treatment period. At Visit 4 (Week 0), patients were randomly assigned to 1 of the following treatment groups: • AMR101 2 g daily, • AMR101 4 g daily, or • Placebo. Eligible patients were randomly assigned at Visit 4 (Week 0) to receive orally AMR101 2 g daily, AMR101 4 g daily, or placebo for the 12-week double-blind treatment period. AMR101 was provided in 1 g liquid-filled, oblong, gelatin capsules. The matching placebo capsule was filled with light liquid paraffin and contained 0 g of AMR101. During the double-blind treatment period, patients took 2 capsules (AMR101 or matching placebo) in the morning and 2 in the evening for a total of 4 capsules per day. Patients in the AMR101 2 g/day treatment group received 1 AMR101 1 g capsule and 1 matching placebo capsule in the morning and in the evening. Patients in the AMR101 4 g/day treatment group received 2 AMR101 1 g capsules in the morning and evening. The primary efficacy variable for the double-blind treatment period was percent change in TG from baseline to Week 12 endpoint. […]

[2] = test system: patients with fasting triglyceride levels ≥500 mg/dL; test: Lipoprotein particle size by NMR spectroscopy in the clinical study; assay type: in vivo, human; settings: for VLDL particle size, placebo-adjusted median percent change from baseline: Hodges-Lehmann median; for HDL particle size, median change from baseline / LDL particle size, median change from baseline / VLDL particle size, median change from baseline: baseline to study end; for HDL particle size, end-of-treatment value (median) / LDL particle size, end-of-treatment value (median) / VLDL particle size, end-of-treatment value (median): study end
Experimental: Lipoprotein particle concentrations and sizes were measured with nuclear magnetic resonance spectroscopy in the above described clinical trial. Lipoprotein particle size and concentration parameters were obtained from fasting blood samples. Lipoprotein particle size and concentrations are measured by nuclear magnetic resonance (NMR) spectroscopy at LipoScience, Inc. (Raleigh, N.C.) using the LipoProfile-3 algorithm. VLDL, LDL, and HDL subclasses of different size were quantified from the amplitudes of their spectroscopically-distinct lipid methyl group NMR signals.
Subjects with missing baseline or Week 12 measurements, due to either missing laboratory samples or un-reportable values, were excluded from this analysis. The median difference of each lipoprotein particle variable (percent change from baseline) between each AMR101 treatment group and the placebo group was evaluated with a nonparametric test using the Hodges-Lehmann medians of the differences between treatment groups and the Wilcoxon rank-sum test (significance level 0.05). All statistical analyses were carried out using SAS 9.2 software.

CC/C=C\C/C=C\C/C=C\C/C=C\C/C=C\CCCC(=O)OCC [AMR101, ethyl eicosapentaenoate]
Apo B median percent change, AMR101 2 g/day vs. Placebo ([1]; 2 g/day vs placebo, 12 weeks): −2.6% | HDL-C median percent change, AMR101 2 g/day vs. Placebo ([1]; 2 g/day vs placebo, 12 weeks): 1.5% | LDL-C median percent change, AMR101 2 g/day vs. Placebo ([1]; 2 g/day vs placebo, 12 weeks): 5.2% | Lp-PLA2 median percent change, AMR101 2 g/day vs. Placebo ([1]; 2 g/day vs placebo, 12 weeks): −5.1% | Non-HDL-C median percent change, AMR101 2 g/day vs. Placebo ([1]; 2 g/day vs placebo, 12 weeks): −8.1% | TC median percent change, AMR101 2 g/day vs. Placebo ([1]; 2 g/day vs placebo, 12 weeks): −6.8% | TG median percent change, AMR101 2 g/day vs. Placebo ([1]; 2 g/day vs placebo, 12 weeks): −19.7% | VLDL-C median percent change, AMR101 2 g/day vs. Placebo ([1]; 2 g/day vs placebo, 12 weeks): −15.3% | VLDL-TG median percent change, AMR101 2 g/day vs. Placebo ([1]; 2 g/day vs placebo, 12 weeks): −17.3% | Apo B median percent change from baseline ([1]; 2 g/day, 12 weeks): 2.1% | HDL-C median percent change from baseline ([1]; 2 g/day, 12 weeks): 0.0% | LDL-C median percent change from baseline ([1]; 2 g/day, 12 weeks): −2.5% | Lp-PLA2 median percent change from baseline ([1]; 2 g/day, 12 weeks): −5.1% | Non-HDL-C median percent change from baseline ([1]; 2 g/day, 12 weeks): 0.0% | TC median percent change from baseline ([1]; 2 g/day, 12 weeks): 0.7% | TG median percent change from baseline ([1]; 2 g/day, 12 weeks): −7.0% | VLDL-C median percent change from baseline ([1]; 2 g/day, 12 weeks): 0.0% | VLDL-TG median percent change from baseline ([1]; 2 g/day, 12 weeks): −6.4% | Apo B median percent change, AMR101 4 g/day vs. Placebo ([1]; 4 g/day vs placebo, 12 weeks): −8.5% | HDL-C median percent change, AMR101 4 g/day vs. Placebo ([1]; 4 g/day vs placebo, 12 weeks): −3.6% | LDL-C median percent change, AMR101 4 g/day vs. Placebo ([1]; 4 g/day vs placebo, 12 weeks): −2.3% | Lp-PLA2 median percent change, AMR101 4 g/day vs. Placebo ([1]; 4 g/day vs placebo, 12 weeks): −13.6% | Non-HDL-C median percent change, AMR101 4 g/day vs. Placebo ([1]; 4 g/day vs placebo, 12 weeks): −17.7% | TC median percent change, AMR101 4 g/day vs. Placebo ([1]; 4 g/day vs placebo, 12 weeks): −16.3% | TG median percent change, AMR101 4 g/day vs. Placebo ([1]; 4 g/day vs placebo, 12 weeks): −33.1% | VLDL-C median percent change, AMR101 4 g/day vs. Placebo ([1]; 4 g/day vs placebo, 12 weeks): −28.6% | VLDL-TG median percent change, AMR101 4 g/day vs. Placebo ([1]; 4 g/day vs placebo, 12 weeks): −25.8% | Apo B median percent change from baseline ([1]; 4 g/day, 12 weeks): −3.8% | HDL-C median percent change from baseline ([1]; 4 g/day, 12 weeks): −3.5% | LDL-C median percent change from baseline ([1]; 4 g/day, 12 weeks): −4.5% | Lp-PLA2 median percent change from baseline ([1]; 4 g/day, 12 weeks): −17.1% | Non-HDL-C median percent change from baseline ([1]; 4 g/day, 12 weeks): −7.7% | TC median percent change from baseline ([1]; 4 g/day, 12 weeks): −7.3% | TG median percent change from baseline ([1]; 4 g/day, 12 weeks): −26.6% | VLDL-C median percent change from baseline ([1]; 4 g/day, 12 weeks): −19.5% | VLDL-TG median percent change from baseline ([1]; 4 g/day, 12 weeks): −25.2% | Reduction of median apolipoprotein B compared with placebo ([1]; 4 g/day, previously reported, stated as reduction): 8.5% | VLDL particle size, placebo-adjusted median percent change from baseline ([2]; 2 g/day vs placebo): −4.0% | HDL particle size, median change from baseline ([2]; 2 g/day, n = 63): 0.0% | LDL particle size, median change from baseline ([2]; 2 g/day, n = 63): 0.0% | VLDL particle size, median change from baseline ([2]; 2 g/day, n = 63): −3.4% | HDL particle size, end-of-treatment value (median) ([2]; 2 g/day, n = 63): 8.9 nm | LDL particle size, end-of-treatment value (median) ([2]; 2 g/day, n = 63): 19.6 nm | VLDL particle size, end-of-treatment value (median) ([2]; 2 g/day, n = 63): 60.6 nm | VLDL particle size, placebo-adjusted median percent change from baseline ([2]; 4 g/day vs placebo): −8.6% | LDL particle size, median change from baseline ([2]; 4 g/day, n = 60): 0.0% | LDL particle size, end-of-treatment value (median) ([2]; 4 g/day, n = 60): 19.7 nm | HDL particle size, median change from baseline ([2]; 4 g/day, n = 61): 1.1% | VLDL particle size, median change from baseline ([2]; 4 g/day, n = 61): −8.6% | HDL particle size, end-of-treatment value (median) ([2]; 4 g/day, n = 61): 8.9 nm | VLDL particle size, end-of-treatment value (median) ([2]; 4 g/day, n = 61): 55.7 nm
